Laboratory results published in patent US8592469B2, “Diazonamide analogs” (Joyant Pharmaceuticals, Inc., priority 2012, dated 2013).

Tests used:
U937 cells = experiment: Cell viability assay (Cell-Titer-Glo) in U937 cells; type: cell-based; details: test compounds 1 nM to 1 μM
Protocol: (§1) Cell viability assays were run using standard protocols known to those of skill in art. Cells were plated in 96 well plates at the density of 3,000-10,000 cells per well. Twenty four hours later, cells were treated with increasing concentration of test compounds (1 nM to 1 μM). After another 48 hour, cell survival was measured using Cell-Titer-Glo® reagent (Promega) following the protocol provided by the manufacture. The IC50 value was determined as the concentration of test compound that kills 50% of the cell population.
(§2) Cell viability data generated according to the protocol described above was generated for representative compounds in A2058 and U937 cells. The compounds shown in Table 1 were prepared by the methods described herein for structurally similar compounds. The reference compound was a synthetic diazonamide analog having the structure: […]

A2058 cells = experiment: Cell viability assay (Cell-Titer-Glo) in A2058 cells; type: cell-based; details: Homo sapiens, 48 hour treatment, test compounds 1 nM to 1 μM
Protocol: as §1, §2

[1] = Homo sapiens, U-937, 48 hour treatment

| SMILES | IC50 (U937 cells; [1]) [nM] | IC50 (A2058 cells) [nM] | IC50 (U937 cells; 48 hour treatment) [nM] |
| --- | --- | --- | --- |
| CC(C)[C@H](O)C(=O)N[C@H]1Cc2ccc(O)c(c2)[C@]2(CNc3ccccc32)C2=C(c3nc(CO)co3)N=C(O2)[C@H](C(C)C)NC1=O (single isomer, unassigned) [Compound 102] | 225 | 492 |  |
| CC(C)[C@H](O)C(=O)NC1Cc2ccc3c(c2)C2(C4=C(c5nc(COC(=O)C(C)(C)C)co5)N=C(O4)[C@H](C(C)C)NC1=O)c1ccccc1N[C@H]2O3 (some centres unmarked) [Compound 21] | 20 | 40 |  |
| CC(=O)OCc1coc(-c2nc3oc2C24c5ccccc5N[C@H]2Oc2ccc(cc24)C[C@H](NC(=O)[C@@H](O)C(C)C)C(=O)N[C@H]3C(C)C)n1 (some centres unmarked) [Compound 22] | 19 | 52 |  |
| CC(C)[C@H](O)C(=O)NC1Cc2ccc3c(c2)C2(C4=C(c5nc(COC=O)co5)N=C(O4)[C@H](C(C)C)NC1=O)c1ccccc1N[C@H]2O3 (some centres unmarked) [Compound 23] | 21 | 57 |  |
| COC(=O)OCc1coc(-c2nc3oc2C24c5ccccc5N[C@H]2Oc2ccc(cc24)CC(NC(=O)[C@@H](O)C(C)C)C(=O)N[C@H]3C(C)C)n1 (some centres unmarked) [Compound 24] | 19.7 | 26 |  |
| CC(C)[C@H](O)C(=O)N[C@H]1Cc2ccc3c(c2)C2(C4=C(c5nc(COP(=O)(O)O)co5)N=C(O4)[C@H](C(C)C)NC1=O)c1ccccc1N[C@H]2O3 (some centres unmarked) [Compound 25] | 36.9 | 70.8 |  |
| COC(=O)OCc1coc(-c2nc3oc2C24c5ccccc5N[C@H]2Oc2ccc(cc24)CC(NC(=O)[C@@H](O)C(C)C)C(=O)N[C@H]3C(C)(C)C)n1 (some centres unmarked) [Compound 26] | 2.88 | 3.33 |  |
| CC(C)[C@@H]1NC(=O)C(NC(=O)[C@@H](O)C(C)(C)C)Cc2ccc3c(c2)C2(C4=C(c5nc(CO)co5)N=C1O4)c1ccccc1N[C@H]2O3 (some centres unmarked) [Compound 27] | 98 | 112 |  |
| CC(C)C[C@H](O)C(=O)N[C@H]1Cc2ccc3c(c2)C2(C4=C(c5nc(CO)co5)N=C(O4)[C@H](C(C)C)NC1=O)c1ccccc1N[C@H]2O3 (some centres unmarked) [Compound 28] | 112 | 143 |  |
| CC(O)c1coc(-c2nc3oc2C24c5ccccc5N[C@H]2Oc2ccc(cc24)C[C@H](NC(=O)[C@@H](O)C(C)C)C(=O)N[C@H]3C(C)C)n1 (some centres unmarked) [Compound 29] | 59 | 119 |  |
| CC(=O)c1coc(-c2nc3oc2C24c5ccccc5N[C@H]2Oc2ccc(cc24)C[C@H](NC(=O)[C@@H](O)C(C)C)C(=O)N[C@H]3C(C)C)n1 (some centres unmarked) [Compound 30] | 13 | 60 |  |
| CC(C)[C@H](O)C(=O)N[C@H]1Cc2ccc3c(c2)C2(C4=C(c5nc(C(C)(C)O)co5)N=C(O4)[C@H](C(C)C)NC1=O)c1ccccc1N[C@H]2O3 (some centres unmarked) [Compound 31] | 259 | 602 |  |
| CNCc1coc(-c2nc3oc2C24c5ccccc5N[C@H]2Oc2ccc(cc24)C[C@H](NC(=O)[C@@H](O)C(C)C)C(=O)N[C@H]3C(C)C)n1 (some centres unmarked) [Compound 32] | > 1000 | > 1000 |  |
| CC(C)[C@H](O)C(=O)N[C@H]1Cc2ccc3c(c2)C2(C4=C(c5nc(CN)co5)N=C(O4)[C@H](C(C)C)NC1=O)c1ccccc1N[C@H]2O3 (some centres unmarked) [Compound 33] | > 1000 | > 1000 |  |
| COC(=O)NCc1coc(-c2nc3oc2C24c5ccccc5N[C@H]2Oc2ccc(cc24)C[C@H](NC(=O)[C@@H](O)C(C)C)C(=O)N[C@H]3C(C)C)n1 (some centres unmarked) [Compound 34] | 134 | 149 |  |
| CC(C)[C@H](O)C(=O)NC1Cc2ccc3c(c2)C2(C4=C(c5nc(CNS(C)(=O)=O)co5)N=C(O4)[C@H](C(C)C)NC1=O)c1ccccc1N[C@H]2O3 (some centres unmarked) [Compound 35] | 198 | 151 |  |
| CC(C)[C@H](O)C(=O)N[C@H]1Cc2ccc3c(c2)C2(C4=C(c5nc(CNS(=O)(=O)c6ccccc6)co5)N=C(O4)[C@H](C(C)C)NC1=O)c1ccccc1N[C@H]2O3 (some centres unmarked) [Compound 36] | 209 | 194 |  |
| COC(=O)c1coc(-c2nc3oc2[C@]24c5ccccc5NC2Oc2ccc(cc24)C[C@H](NC(=O)[C@@H](O)C(C)C)C(=O)N[C@H]3C(C)(C)C)n1 (some centres unmarked) [Compound 59] |  |  | 69 |
